Molecules are shown by their SMILES. Converted amounts (≈) assume the structure as drawn. Like-named read-outs stand apart in the source and are kept apart here.

In one data set the target is BRD4 BD2. The settings on record: cited from earlier work.
Data set [1] can be described thus: CYPs and UGTs dual-activity microsomal stability. It counts as in vitro ADME. The settings on record: human liver microsomes; alamethicin, NADPH and UDPGA cofactors; 37 °C, 60 min. The protocol: In this study, the CYPs and UGTs “dual‐activity” microsomal stability assay was carried out to follow the loss of the test compounds over time under CYP‐ and UGT‐mediated metabolic pathways. In detail, the compounds were added to human liver microsomes in the presence of alamethicin, NADPH and UDPGA as cofactors.[24] Alamethicin, a pore‐forming peptide, was used to activate UGTs in human liver microsomes. Testosterone was used as positive control while the negative control was prepared by incubation of the compounds without cofactors up to 60 min. The negative control is essential to detect problems such as non‐specific protein binding or heat instability.
Instrumentation and chromatographic conditions. The metabolic stability of investigated compounds was monitored using a Nexera UHPLC system (Shimadzu, Kyoto, Japan) consisting of a CBM‐20A controller, two LC‐30AD pumps, an SPD‐M20A photo diode array detector, a CTO‐20AC column oven and, a SIL‐30AC autosampler. The chromatographic analyses were accomplished on a Kinetex® Evo C18 column, 150×2.1 mm×2.6 μm (Phenomenex®, Bologna, Italy) maintained at 40 °C. The optimal mobile phase consisted of 0.1 % HCOOH/H2O v/v (A) and 0.1 % HCOOH/ACN v/v (B) delivered at constant flow rate of 0.5 mL/min ^−1. Analysis was performed in gradient elution as follows: 0–8.00 min, 5–95 % B; 8.00–10.00 min, isocratic to 95 % B; then five minutes for column re‐equilibration. Data acquisition was set in the range 190–800 nm and chromatograms were monitored at 254 nm.
In vitro drug metabolism using human liver microsomes. 25 μL of 5 mg/mL human […] microsomes (Thermo Fisher Scientific, Bremen, Germany) were pre‐incubated with 0.625 μL of 100 μg/mL alamethicin. Then 2.5 μL of sample (5 mM) with 168 μL of 100 mM phosphate buffer (pH 7.4), 4 μL of 500 mM MgCl2 were added, the mixture was incubated at 37 °C for 5 min. Optimal UGT activity can be achieved by the addition of MgCl2 and alamethicin as pore forming antibiotic. These components allow for the efficient transfer of a glucuronide product and the cofactor uridine 5′‐diphospho‐α‐D‐glucuronic acid (UDPGA) within the microsomal matrix. The reaction has started by adding 50 μL of mix NADPH 20 mM and UDP‐GlcUA 20 mM as cofactors (1 : 1 v/v) and carried out 37 °C for 60 min in a Thermomixer comfort (Eppendorf, Hamburg, Germany). The reaction was stopped by the addition of 200 μL ice‐cold acetonitrile and then samples were centrifuged at 14,000 rpm at 25 °C for 5 min (Eppendorf® microcentrifuge 5424, Hamburg, Germany). The supernatants were collected and injected in UHPLC. The control at 0 min was obtained by addition of ice‐cold acetonitrile immediately after incubation with microsomes. […]

A short description of data set [2]: Nephelometric solubility determination. It counts as physicochemical. The settings on record: for solubility: aqueous buffer, kinetic from dmso stock, PBS with 1 % DMSO, tested at 50 and 100 μM, room temperature, read-out: Solubility (highest concentration where no precipitate was detected). As to the method: Solubility determination. Solubility of the compounds was determined using Nepheloskan Ascent® (Labsystems). The experiments were performed at room temperature in 96‐well plates in a final volume of 300 μL. Each compound was tested in quadruplicate at the concentrations of 50 and 100 μM in PBS with 1 % DMSO. The measurements were performed at 4 different time points (T0, 30 min, 60 min, 90 min) from the preparation of the samples. Data obtained were compared to control (PBS with 1 % DMSO) and the ratio sample/control was determined for each compound. Compounds are considered soluble if the ratio is≤3.

A further data set has as its target T1, BRD4 BD1 (Homo sapiens, UniProt O60885).
T1 construct: The microsyringe was loaded with a solution of BRD4 BD1; His6 (cleaved yes); made in house; host or cells: E. coli BL21(DE3)-R3-pRARE2
Conditions: cited from earlier work.

Data set [3] concerns BD1 and BD2 of BRD2 and BRD3. Conditions: cited from earlier work.
The nature of a further data set: in vitro. Conditions: PAMPA, pH 7.4. As to the method:
Membrane permeability was estimated by the well‐validated parallel artificial membrane permeability assay (PAMPA) technique.[17, 26]
Parallel Artificial Membrane Permeability Assay (PAMPA). Donor solution (0.2 mM) was prepared by diluting 20 mM dimethyl sulfoxide (DMSO) compound stock solution using phosphate buffer (pH 7.4, 0.01 M). Filters were coated with 5 μL of a 1 % (w/v) dodecane solution of L‐α‐phosphatidylcholine. Donor solution (150 μL) was added to each well of the filter plate. To each well of the acceptor plate, 300 μL of solution (5 % DMSO in phosphate buffer) was added. […] The sandwich was incubated for 24 h at room temperature under gentle shaking. After the incubation time, the sandwich plates were separated and 250 μL of the acceptor plate was transferred to a UV quartz microtiter plate and measured by UV spectroscopy, using a Multiskan GO microplate spectrophotometer (Thermo Fisher Scientific) at 250–500 nm at a step of 5 nm. Reference solutions (250 μL) were prepared diluting the sample stock solutions to the same concentration as that with no membrane barrier.
In this equation, VR is the volume of the acceptor compartment (0.3 cm^3), VD is the donor volume (0.15 cm^3), A is the accessible filter area (0.24 cm^2), and t is the incubation time in seconds.

The target in another data set is T2, BRD3(BD1) (Homo sapiens, UniProt Q15059).
T2 construct: tested on BD1 and BD2 domains (6×His‐tagged) of each BET protein
As to the kind of experiment: TR-FRET displacement binding assay. The settings on record: AlexaFluor647 derivative of 1. Background: Time-resolved FRET reads energy transfer from a long-lived donor to a nearby acceptor.

Another data set deals with HeLa cells. Description: MTT cell viability assay. The settings on record: 50 μM, 72 h. It counts as cell-based, human. The protocol:
Cells were incubated with different compound concentrations (50 μM, 5 μM and 0.5 μM) for different times (24, 48 and 72 h) and cellular viability was determined performing an MTT (3‐(4,5‐dimethylthiazol‐2‐yl)‐2,5‐diphenyl‐2H‐tetrazolium bromide) assay.
Cell Viability Assay. HeLa cell line was cultured in DMEM supplemented with 10 % (v/v) fetal bovine serum, 100 U/mL penicillin, 100 μg/mL streptomycin, and 2 mM L‐glutamine at 37 °C in a 5 % CO2 atmosphere. Cell viability was determined using a 3‐(4,5‐dimethylthiazol‐2‐yl)‐2,5‐diphenyltetrazolium bromide (MTT) assay. […] The mitochondrial dependent reduction of MTT to formazan was used to assess cell viability. Live cells reduce yellow MTT to purple formazan. The formazan was solubilized in DMSO, and absorbance was measured at 550 nm and corrected for 620 nm background. Experiments were performed in quadruplicate and all values are expressed as the percentage of the control containing 1 % DMSO.
Background: Formazan colour is commonly taken as a measure of viable cells.

The target in the next data set is T3, BRD2(BD2) (Homo sapiens, UniProt P25440).
T3 construct: tested on BD1 and BD2 domains (6×His‐tagged) of each BET protein
As to the kind of experiment: TR-FRET displacement binding assay. Conditions: AlexaFluor647 derivative of 1.

Data set [4] deals with BD1 and BD2 of BET proteins (BRD2, BRD3, BRD4 and BRDT). As to the kind of experiment: Protein stability shift assay (ΔTm), BET bromodomains. Format: binding. The settings on record: compound 10 μM; protein 2 μM. As to the method:
The compounds were tested at 10 μM fixed dose and the pan‐BET inhibitor 1 was used as a reference compound.[22] The results obtained from this screening supported our design strategy.
Protein stability shift assay. Thermal melting experiments were carried out using an Mx3005p Real Time PCR machine (Stratagene). Proteins were buffered in 10 mM HEPES pH 7.5, 500 mM NaCl and assayed in a 96‐well plate at a final concentration of 2 μM in 20 μL volume. Compounds were added at a final concentration of 10 μM. SYPRO Orange (Molecular Probes) was added as a fluorescence probe at a dilution of 1 : 1000. Excitation and emission filters for the SYPRO‐Orange dye were set to 465 nm and 590 nm, respectively. The temperature was raised with a step of 3 °C per minute from 25 °C to 96 °C and fluorescence readings were taken at each interval. The temperature dependence of the fluorescence during the protein denaturation process was approximated by the equation yT=yF+yU-yF/1+e^ΔuGT/RT
where ΔuG(T) is the difference in unfolding free energy between the folded and unfolded state, R is the gas constant and yF and yU are the fluorescence intensity of the probe in the presence of completely folded and unfolded protein, respectively. The baselines of the denatured and native states were approximated by a linear fit. The observed temperature shifts, ΔTm obs, were recorded as the difference between the transition midpoints of sample and reference wells containing protein without ligand in the same plate and determined by non‐linear least squares fit.

In a further data set the target is T4, BRD2(BD1) (Homo sapiens, UniProt P25440).
T4 construct: tested on BD1 and BD2 domains (6×His‐tagged) of each BET protein
Description: TR-FRET displacement binding assay. Conditions: AlexaFluor647 derivative of 1.

In the next data set the target is T5, BRD3(BD2) (Homo sapiens, UniProt Q15059).
T5 construct: tested on BD1 and BD2 domains (6×His‐tagged) of each BET protein
Description: TR-FRET displacement binding assay. The settings on record: AlexaFluor647 derivative of 1.

Details of data set [5]: method as in PMID 32193360. The settings on record: cited from earlier work.
The subject of a further data set is HL60 cell line. The settings on record: read-out: IC50 cell growth HL60; cited from earlier work.
In another data set the test system is BD1 in all BET proteins. Conditions: cited from earlier work.
The test system of another data set is THP‐1 cell line. Conditions: read-out: IC50 cell growth THP‐1; cited from earlier work.
For another data set, the system named is MV4‐11 cell line. The settings on record: read-out: IC50 cell growth MV4‐11; cited from earlier work.
Another data set deals with BD1 (BRD3 and BRD4). The settings on record: cited from earlier work.
In the next data set the target is BD1 of BET proteins. The settings on record: cited from earlier work.

T2 sequence (Q15059 34-140 limits assumed): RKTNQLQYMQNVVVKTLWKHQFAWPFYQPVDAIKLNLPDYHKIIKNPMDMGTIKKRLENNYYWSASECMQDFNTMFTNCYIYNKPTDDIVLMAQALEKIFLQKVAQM
T3 sequence (P25440 344-453 limits assumed): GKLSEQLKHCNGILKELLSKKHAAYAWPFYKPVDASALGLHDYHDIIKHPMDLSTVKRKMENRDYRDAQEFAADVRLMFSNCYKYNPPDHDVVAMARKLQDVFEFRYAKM
T5 sequence (Q15059 306-415 limits assumed): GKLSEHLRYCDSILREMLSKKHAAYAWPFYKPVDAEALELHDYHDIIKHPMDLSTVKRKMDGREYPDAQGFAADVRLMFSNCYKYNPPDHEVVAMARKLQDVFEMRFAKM
T4 sequence (P25440 74-180 limits assumed): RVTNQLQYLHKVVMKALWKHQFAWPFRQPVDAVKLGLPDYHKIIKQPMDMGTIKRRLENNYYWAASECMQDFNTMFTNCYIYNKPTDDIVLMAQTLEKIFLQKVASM
Description for BRD2(BD1): (§1) TR‐FRET assay. […] Compound was diluted in assay buffer (150 mM HEPES, 150 mM NaCl, 5 % glycerol, 1 mM DTT, and 1 mM CHAPS, pH 7.4), starting from a stock solution of 10 mM (100 % DMSO). The highest concentration tested was 100 μM and from this concentration 11 three‐fold dilutions were prepared. […] TR‐FRET ratio was calculated using the following equation: ratio=acceptorfluorescenceat665nm/donorfluorescenceat615nm×1000
(§2) Compound was tested in triplicate and data were analyzed using GraphPad Prism software (version 8.0) using the equation log(inhibitor) vs. normalized response‐variable slope.
Description for BRD2(BD2): as §1, §2
Description for BRD3(BD1): as §1, §2
Description for BRD3(BD2): as §1, §2

Consider `Cc1cc(/N=N/c2ccc(S(=O)(=O)Nc3ccc(C#N)cc3)cc2)cc(C)c1O` [7 b, MS611], for which the figures for the Ki on BRD4 BD2 and at BRD4 BD1 were 41300 nM and 410 nM, respectively. Besides, the “CYPs and UGTs “dual‐activity” microsomal stability (percentage of the parent compound turnover)” value in data set [1] is listed as 7.5±1.0%. Moreover, in data set [2], the solubility stood at 50 µM (≈ 20.3 µg/mL). Moreover, the “Selectivity between BD1 and BD2 of BRD2 and BRD3 (words)” value in [3] was “almost no selectivity between each BDs domain of BRD3 and BRD2”; in data set [3] (listed as MS611) it was “almost no difference in binding affinity between BD1 and BD2 of BRD2 and BRD3”. Also, in the data set “in vitro”, the Papp at 24 h, 0.2 mM is 1.1 ×10⁻⁶ cm/s.

As for `Cc1cc(-c2nc3ccc(S(=O)(=O)Nc4ccccn4)cc3[nH]2)cc(C)c1O` [9 a, 2‐(4‐hydroxy‐3,5‐dimethylphenyl)‐N‐(pyridin‐2‐yl)‐1H‐benzo[d]imidazole‐6‐sulfonamide], the “CYPs and UGTs “dual‐activity” microsomal stability (percentage of the parent compound turnover)” value in data set [1] is 1.0±0.3%. For the same molecule, in data set [2] (100 μM, aqueous solution with 1 % DMSO), the “Solubility at 100 μM” value is “still soluble”. In data set [2], the solubility stood at 100 µM (≈ 39.4 µg/mL). In addition, the concentration for half-maximal inhibition (IC50) is 180 ± 20 nM at BRD3(BD1), 22000 ± 8000 nM at BRD2(BD2), 126 ± 19 nM on BRD2(BD1) and 7000 ± 3000 nM on BRD3(BD2). Also, the “Decrease of cell viability” value with HeLa cells is “around 30%”. In addition, the “ΔTm screening against BET bromodomains” value in data set [4] was “increase in the melting temperature of all BET proteins”. This molecule also registered an apparent permeability (Papp) at 24 h, 0.2 mM in “in vitro” of 0.107 ×10⁻⁶ cm/s.

On to `COCc1nc2cnc3cc(-c4c(C)noc4C)c(OC[C@H]4CCNC4)cc3c2n1[C@H](C)c1ccccc1` [Compound 5, GSK778], for which the “Pharmacokinetic properties” value in data set [5] is “poor pharmacokinetic properties”.

`Cc1cc2c(-c3ccco3)cnc(N[C@@H]3CCN(C)C[C@H]3C(=O)NC3CCCCC3)c2[nH]c1=O` [Compound 6, GSK789]: the half-maximal inhibitory concentration (IC50) in the data set on HL60 cell line is 390 nM; with BD1 in all BET proteins it was 30 nM; with THP‐1 cell line, 258 nM; with MV4‐11 cell line, 25 nM. Besides, the “Selectivity for BD1 over BD2 in all BET proteins” value with BD1 in all BET proteins is recorded as 1000 fold.

On to `COc1ccccc1S(=O)(=O)Nc1ccc2c3c(cc(-n4cnc(C)c4)nc13)C(=O)N2C` [LT052], for which, in the data set on BD1 (BRD3 and BRD4) (read-out: IC50 towards BD1), the IC50 was 87.7 nM. The “Selectivity for BD1 over BD2” value in the data set on BD1 (BRD3 and BRD4) (tested against BRD3 and BRD4) is “over 100 fold”.

As to `CC(=O)NCCCCn1c2c(c3ccccc31)C(=O)NCC2` [Olinone], the dissociation constant Kd at BD1 of BET proteins was 3400 nM.

One may read the Ki as the dissociation constant of the complex between target and ligand, obtained from inhibition or displacement. By Papp is commonly meant the rate of passage across a membrane or cell layer, normalised by area and donor concentration. By IC50 is commonly meant the point on the concentration scale where inhibition reaches its midpoint. By Kd is commonly meant the concentration at which binding is half-saturated.

The record behind these values is publication PMC9826262, “Discovery of Benzo[d]imidazole‐6‐sulfonamides as Bromodomain and Extra‐Terminal Domain (BET) Inhibitors with Selectivity for the First Bromodomain” (Chemmedchem, 2022).
